Assays:
[1] = molecular target: T1, human recombinant HDAC1 (Homo sapiens, UniProt Q13547); assay: HDAC enzyme activity inhibition assay (HDAC Fluorimetric Drug Discovery Kit), HDAC1; type: biochemical; conditions: human recombinant HDAC1, Fluor de Lys-SIRT1 substrate, 30° C. 60 minutes
T1 construct: purchased Enzo Life Sciences, Inc. BML-SE456
Summary of the method: (§1)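 Recombinant human HDAC1 or HDAC6 (0.3 μg) reacted with 10 μM Fluor de Lys-SIRT1 substrate at 30 °C for 60 min. Developer added for 30 min, then fluorescence read at Ex 360/Em 460.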

[2] = molecular target: T2, human recombinant HDAC6 (Homo sapiens, UniProt Q9UBN7); assay: HDAC enzyme activity inhibition assay (HDAC Fluorimetric Drug Discovery Kit), HDAC6; type: biochemical; conditions: for HDAC6 selectivity (fold): HDAC1 vs HDAC6; for IC50: human recombinant HDAC6, same protocol as HDAC1
T2 construct: purchased Calbiochem Inc. 382180
T2 sequence (Q9UBN7 1-1215): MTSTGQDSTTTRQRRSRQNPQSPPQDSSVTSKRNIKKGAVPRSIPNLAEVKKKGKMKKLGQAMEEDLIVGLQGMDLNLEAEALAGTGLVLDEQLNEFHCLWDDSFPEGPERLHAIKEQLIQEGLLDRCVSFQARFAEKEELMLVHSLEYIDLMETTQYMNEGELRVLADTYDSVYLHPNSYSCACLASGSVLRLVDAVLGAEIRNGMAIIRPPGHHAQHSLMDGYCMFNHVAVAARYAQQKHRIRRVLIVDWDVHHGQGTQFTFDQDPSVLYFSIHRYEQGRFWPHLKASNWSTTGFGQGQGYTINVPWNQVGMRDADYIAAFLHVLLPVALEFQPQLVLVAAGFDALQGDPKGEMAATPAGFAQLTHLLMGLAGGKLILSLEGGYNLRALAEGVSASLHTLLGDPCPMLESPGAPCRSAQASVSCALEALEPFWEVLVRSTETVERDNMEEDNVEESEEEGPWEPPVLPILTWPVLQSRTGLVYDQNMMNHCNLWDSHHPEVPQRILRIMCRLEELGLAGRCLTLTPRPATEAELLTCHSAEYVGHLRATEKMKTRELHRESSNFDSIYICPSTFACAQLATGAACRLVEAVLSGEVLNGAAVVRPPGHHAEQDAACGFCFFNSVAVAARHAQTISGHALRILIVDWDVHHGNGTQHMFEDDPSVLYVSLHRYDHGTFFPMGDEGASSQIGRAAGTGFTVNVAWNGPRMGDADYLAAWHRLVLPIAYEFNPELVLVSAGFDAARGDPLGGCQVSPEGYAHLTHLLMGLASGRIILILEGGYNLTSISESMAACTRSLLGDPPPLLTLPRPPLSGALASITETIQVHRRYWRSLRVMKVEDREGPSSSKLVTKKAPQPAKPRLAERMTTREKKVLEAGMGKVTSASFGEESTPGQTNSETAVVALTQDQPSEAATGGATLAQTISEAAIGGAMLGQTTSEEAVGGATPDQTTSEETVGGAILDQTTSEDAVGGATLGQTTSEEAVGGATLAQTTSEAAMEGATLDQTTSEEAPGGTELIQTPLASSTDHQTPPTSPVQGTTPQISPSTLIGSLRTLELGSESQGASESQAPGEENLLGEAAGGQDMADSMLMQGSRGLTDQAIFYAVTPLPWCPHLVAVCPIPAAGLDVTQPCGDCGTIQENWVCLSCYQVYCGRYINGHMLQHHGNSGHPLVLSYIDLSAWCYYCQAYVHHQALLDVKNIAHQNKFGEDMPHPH
Summary of the method: as §1

T1 sequence (Q13547 whole entry): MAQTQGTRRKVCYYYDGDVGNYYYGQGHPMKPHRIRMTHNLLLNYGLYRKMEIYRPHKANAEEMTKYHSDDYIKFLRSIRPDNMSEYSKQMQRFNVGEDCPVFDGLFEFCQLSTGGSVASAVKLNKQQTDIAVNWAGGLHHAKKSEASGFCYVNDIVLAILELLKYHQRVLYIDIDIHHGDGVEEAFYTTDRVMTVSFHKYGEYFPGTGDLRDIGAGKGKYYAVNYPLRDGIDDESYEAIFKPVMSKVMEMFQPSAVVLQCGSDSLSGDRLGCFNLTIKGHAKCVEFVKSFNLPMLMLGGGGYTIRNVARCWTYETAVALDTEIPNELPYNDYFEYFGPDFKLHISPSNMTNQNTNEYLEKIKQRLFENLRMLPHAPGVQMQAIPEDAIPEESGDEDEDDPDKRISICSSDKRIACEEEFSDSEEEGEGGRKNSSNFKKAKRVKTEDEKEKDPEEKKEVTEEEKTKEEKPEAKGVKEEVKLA

IC50 [1] | HDAC6 selectivity (fold) [2] | IC50 [2] | SMILES
27500 nM | 735 fold | 37.4 nM | CCCCN1CC(F)(C(=O)N(Cc2ccc(-c3nnc(C(F)F)o3)cn2)c2ccccc2)C1 [Compound 3003, 1-butyl-N-((5-(5-(difluoromethyl)-1,3,4-oxadiazol-2-yl)pyridin-2-yl)methyl)-3-fluoro-N-phenylazetidine-3-carboxamide]
> 50000 nM | 1,901 fold | 26.3 nM | CC(CO)N1CC(F)(C(=O)N(Cc2ccc(-c3nnc(C(F)F)o3)cn2)c2cccc(F)c2)C1 (stereo not drawn) [Compound 3094, N-((5-(5-(difluoromethyl)-1,3,4-oxadiazol-2-yl)pyridin-2-yl)methyl)-3-fluoro-N-(3-fluorophenyl)-1-(1-hydroxypropan-2-yl)azetidine-3-carboxamide]
> 50000 nM | 1,827 fold | 27.4 nM | CCCCN1CC(N2CC(F)(C(=O)N(Cc3ccc(-c4nnc(C(F)F)o4)cn3)c3ccccc3)C2)C1 [Compound 3108, 1′-butyl-N-((5-(5-(difluoromethyl)-1,3,4-oxadiazol-2-yl)pyridin-2-yl)methyl)-3-fluoro-N-phenyl-[1,3′-biazetidine]-3-carboxamide]
> 50000 nM | 943 fold | 53 nM | CCCN1CC(F)(C(=O)N(Cc2ccc(-c3nnc(C(F)F)o3)cn2)c2ccccc2)C1 [Compound 3002, N-((5-(5-(difluoromethyl)-1,3,4-oxadiazol-2-yl)pyridin-2-yl)methyl)-3-fluoro-N-phenyl-1-propylazetidine-3-carboxamide]
> 50000 nM | 1,326 fold | 37.7 nM | CC(C)CC(=O)N1CC(F)(C(=O)N(Cc2ccc(-c3nnc(C(F)F)o3)cn2)c2ccccc2)C1 [Compound 3155, N-((5-(5-(difluoromethyl)-1,3,4-oxadiazol-2-yl)pyridin-2-yl)methyl)-3-fluoro-1-(3-methylbutanoyl)-N-phenylazetidine-3-carboxamide]
> 50000 nM | 741 fold | 67.4 nM | O=C(N(Cc1ccc(-c2nnc(C(F)F)o2)cn1)c1cccc(F)c1)C1(F)CN(CC2CCCCC2)C1 [Compound 3171, 1-(cyclohexylmethyl)-N-((5-(5-(difluoromethyl)-1,3,4-oxadiazol-2-yl)pyridin-2-yl)methyl)-3-fluoro-N-(3-fluorophenyl)azetidine-3-carboxamide]
> 50000 nM | 302 fold | 166 nM | CC(=O)N1CCC(F)(C(=O)N(Cc2ccc(-c3nnc(C(F)F)o3)cc2F)c2ccccc2)CC1 [Compound 3438, 1-acetyl-N-(4-(5-(difluoromethyl)-1,3,4-oxadiazol-2-yl)-2-fluorobenzyl)-4-fluoro-N-phenylpiperidine-4-carboxamide]
18500 nM | 237 fold | 78 nM | CC(C)N1CC(F)(C(=O)N(Cc2ccc(-c3nnc(C(F)F)o3)cn2)c2cccc(F)c2)C1 [Compound 3048, N-((5-(5-(difluoromethyl)-1,3,4-oxadiazol-2-yl)pyridin-2-yl)methyl)-3-fluoro-N-(3-fluorophenyl)-1-isopropylazetidine-3-carboxamide]
> 50000 nM | 1,388 fold | 36 nM | O=C(N(Cc1ccc(-c2nnc(C(F)F)o2)cn1)c1cccc(F)c1)C1(F)CN(C2CN(C3COC3)C2)C1 [Compound 3395, N-((5-(5-(difluoromethyl)-1,3,4-oxadiazol-2-yl)pyridin-2-yl)methyl)-3-fluoro-N-(3-fluorophenyl)-1′-(oxetan-3-yl)-[1,3′-biazetidine]-3-carboxamide]
> 50000 nM | 600 fold | 83.3 nM | O=C(N(Cc1ccc(-c2nnc(C(F)F)o2)cn1)c1ccccc1)C1(F)CCN(C2CC3(COC3)C2)CC1 [Compound 2995, N-((5-(5-(difluoromethyl)-1,3,4-oxadiazol-2-yl)pyridin-2-yl)methyl)-4-fluoro-N-phenyl-1-(2-oxaspiro[3.3]heptan-6-yl)piperidine-4-carboxamide]
> 50000 nM | 2,272 fold | 22 nM | O=C(N(Cc1ccc(-c2nnc(C(F)F)o2)cn1)c1ccccc1)C1(F)CN(C2CCSCC2)C1 [Compound 3162, N-((5-(5-(difluoromethyl)-1,3,4-oxadiazol-2-yl)pyridin-2-yl)methyl)-3-fluoro-N-phenyl-1-(tetrahydro-2H-thiopyran-4-yl)azetidine-3-carboxamide]
29100 nM | 366 fold | 79.5 nM | CC(=O)N1CC(F)(C(=O)N(Cc2ccc(-c3nnc(C(F)F)o3)cc2F)c2ccccc2)C1 [Compound 3432, 1-acetyl-N-(4-(5-(difluoromethyl)-1,3,4-oxadiazol-2-yl)-2-fluorobenzyl)-3-fluoro-N-phenylazetidine-3-carboxamide]
> 50000 nM | 1,326 fold | 37.7 nM | CC(C)N1CC(N2CC(F)(C(=O)N(Cc3ccc(-c4nnc(C(F)F)o4)cn3)c3cccc(F)c3)C2)C1 [Compound 3224]
> 50000 nM | 1,157 fold | 43.2 nM | O=C(N(Cc1ccc(-c2nnc(C(F)F)o2)cn1)c1ccccc1)C1(F)CN(C2CCOCC2)C1 [Compound 3000, N-((5-(5-(difluoromethyl)-1,3,4-oxadiazol-2-yl)pyridin-2-yl)methyl)-3-fluoro-N-phenyl-1-(tetrahydro-2H-pyran-4-yl)azetidine-3-carboxamide]
> 50000 nM | 771 fold | 64.8 nM | CN1CC(N2CC(F)(C(=O)N(Cc3ccc(-c4nnc(C(F)F)o4)cn3)c3ccccc3)C2)C1 [Compound 3105, N-((5-(5-(difluoromethyl)-1,3,4-oxadiazol-2-yl)pyridin-2-yl)methyl)-3-fluoro-1′-methyl-N-phenyl-[1,3′-biazetidine]-3-carboxamide]
24900 nM | 443 fold | 56.1 nM | O=C(N(Cc1ccc(-c2nnc(C(F)F)o2)cn1)c1ccccc1)C1(F)CCN(C2CCCC2)CC1 [Compound 2996, 1-cyclopentyl-N-((5-(5-(difluoromethyl)-1,3,4-oxadiazol-2-yl)pyridin-2-yl)methyl)-4-fluoro-N-phenylpiperidine-4-carboxamide]
> 50000 nM | 1,000 fold | 50 nM | CCN1CC(F)(C(=O)N(Cc2ccc(-c3nnc(C(F)F)o3)cn2)c2ccccc2)C1 [Compound 3001, N-((5-(5-(difluoromethyl)-1,3,4-oxadiazol-2-yl)pyridin-2-yl)methyl)-1-ethyl-3-fluoro-N-phenylazetidine-3-carboxamide]
> 50000 nM | 1,347 fold | 37.1 nM | CCC(=O)N1CC(F)(C(=O)N(Cc2ccc(-c3nnc(C(F)F)o3)cn2)c2ccccc2)C1 [Compound 3153, N-((5-(5-(difluoromethyl)-1,3,4-oxadiazol-2-yl)pyridin-2-yl)methyl)-3-fluoro-N-phenyl-1-propionylazetidine-3-carboxamide]
